Patent US5814638A, “Ophthalmic formulation for treating myopia comprising dopamine agonist and cyclodextrin” (LG Chemical Ltd., priority 1996, dated 1998)

Columns and labels:
[1] = in vivo; cited from earlier work
[2] = Solubility of dopamine agonists in 10 mM citrate buffer (pH 5) at 25° C. with or without HPCD; format: physicochemical
Experimental: (§1) The stability and solubility of dopamine agonists, i.e., bromocriptine(BCT), apomorphine(APO), pergolide(PER), and lisuride(LIS) were tested as follows.
(§2) For the stability test, solutions each containing 100 μg/ml of the dopamine agonist in 10 mM citrate buffer(pH 5) were incubated at 25° C. for 30 days with or without added 2-hydroxypropyl-β-cyclodextrin(HPCD, average molar substitution=0.8, average molecular weight=1500; 20 wt % based on the solution).
(§3) The amounts of the dopamine agonists in sample solutions of the stability and solubility tests were determined by HPLC method with fluorescence detector.
(§4) Each data point in FIGS. 1A and 1B represents the mean of two determinations and each value in FIG. 2 is the mean±SD(standard deviation) of three determinations. […] The addition of HPCD also bring about marked increases in the solubilities of the dopamine agonists; by a factor of 19 for bromocriptine, and two for apomorphine, pergolide, and lisuride.

[3] = tested on: form-deprivation myopia; details: daily intravitreal injections; young chickens; cited from earlier work
[4] = tested on: eye of a young maturing animal; details: ocular administration; cited from earlier work
[5] = cited from earlier work; for Stability with sodium acetate: Tris buffer pH 7.4, sodium acetate added; for Stability in Tris buffer: pH 7.4
[6] = Stability of dopamine agonists in 10 mM citrate buffer (pH 5) at 25° C. with or without HPCD; format: physicochemical; details: 100 μg/ml, 10 mM citrate buffer pH 5, 25° C., 30 days, with vs without 20 wt % HPCD
Experimental: as §1, §2, §3, §4

[7] = mucoadhesive polymer, e.g., polycarbophil; cited from earlier work
[8] = in vivo; cited from earlier work; remark: listed apart in the source

## 2-hydroxypropyl-β-cyclodextrin
[1]
  Tolerability when administered: innocuous when administered

## CN1CCc2cccc3c2[C@H]1Cc1ccc(O)c(O)c1-3 [apomorphine]
[2]; pH 5
  Increase in solubility by addition of HPCD (factor): two
[3]
  Effect on form-deprivation myopia (FDM): block form-deprivation myopia
[4]
  Inhibition of axial enlargement of the eye: can inhibit, and in some cases completely prevent, the axial enlargement of the eye
[5]; 0.01% mercaptoethanol
  Stability with mercaptoethanol: stability of apomorphine is improved
[5]
  Stability with sodium acetate: greatly enhanced
  Stability in Tris buffer: unstable
[5]; water or plasma, ascorbic acid and sodium bisulfate
  Stability with antioxidants: can be stabilized by the addition of antioxidants

## CC(C)C[C@H]1C(=O)N2CCC[C@H]2[C@]2(O)O[C@](NC(=O)[C@@H]3C=C4c5cccc6[nH]c(Br)c(c56)C[C@H]4N(C)C3)(C(C)C)C(=O)N12 [bromocriptine]
[6]
  Effect of HPCD on stability: significant increases in the stabilities

## CCCC(=O)c1ccccc1 [butyrophenone]
[4]
  Inhibition of axial enlargement of the eye: can inhibit, and in some cases completely prevent, the axial enlargement of the eye

## NCCc1ccc(O)c(O)c1 [dopamine]
[5]
  Stability with sodium acetate: greatly enhanced
  Stability in Tris buffer: unstable

## O=C(CCCN1CCC(O)(c2ccc(Cl)cc2)CC1)c1ccc(F)cc1 [haloperidol]
[4]
  Inhibition of axial enlargement of the eye: can inhibit, and in some cases completely prevent, the axial enlargement of the eye

## CCN(CC)C(=O)N[C@H]1C=C2c3cccc4[nH]cc(c34)C[C@H]2N(C)C1 [lisuride]
[6]
  Effect of HPCD on stability: does not affect the stabilities
[2]; 20 mg/ml, 10 mM citrate buffer pH 5, 25° C., 24 hours, 20 wt % HPCD vs none
  Increase in solubility by addition of HPCD (factor): two

## CCCN1C[C@H](CSC)C[C@@H]2c3cccc4[nH]cc(c34)C[C@H]21 [pergolide]
[2]; pH 5
  Increase in solubility by addition of HPCD (factor): two

## gentamicin
[7]
  Penetration via the conjunctival-scleral pathway: facilitated

## poly(vinyl alcohol)
[8]
  Increase in the iris-ciliary body to plasma drug concentration ratio: 52 fold
